# Test results from patent US20130045991A1, “NEUROPROTECTIVE MODULATION OF NMDA RECEPTOR SUBTYPE ACTIVITIES” (THE UNIVERSITY OF BRITISH COLUMBIA, priority 2005, published 2013).
# Tests used:
# synaptic NMDA receptors = experiment: mEPSC recording, NMDA receptor-mediated component; assay type: cell-based, rat
# cortical neurons [1] = experiment: NMDA-mediated excitotoxicity: neuronal apoptosis in cortical cultures; assay type: cell-based, rat; settings: 50 μM NMDA plus 10 μM glycine 20 min, assayed 20 h after; APV 50 μM, Ro25-6981 0.5 μM, NVP-AAM077 0.4 μM
# Experimental: (§1) Mature neurons (11-14 DIV) were used for experiments.
# (§2) To visualize injured neurons, Hoechst-33342 (10 μg/ml) was added to the culture medium 20 h after treatments and incubated for 45 min at 37 °C. Images were taken with a Leica DMIRE2 fluorescence microscope. Quantitative assessment of neuronal apoptosis was performed 20 h following treatments using a Cell Death Detection […] Kit (Roche Applied Science). Absorbance readings were determined using a spectrophotometric microplate reader. Data analyses were carried out according to the manufacturer's instructions. Data are expressed as the difference in apoptosis relative to control and are expressed as a percentage.
# [2] = test system: AMPA subtype glutamate receptor; experiment: mEPSC recording, fast AMPA receptor-mediated component; assay type: cell-based, rat; settings: -60 mV, zero added Mg2+
# [3] = test system: middle cerebral artery occlusion (MCAo); experiment: MCAo focal ischemic stroke model, post-ischemic treatment; assay type: in vivo, rat
# Excerpt: In some clinical settings, it is desirable to implement therapy after the onset of neuronal injury, such as stroke or other ischemic events.
# Transient cerebral focal ischemia was produced by middle cerebral artery occlusion (MCAo) as described (Aarts et al., 2002; Bederson et al., 1986; Longa et al., 1989). Briefly, male Sprague-Dawley rats (Charles River Laboratories) weighing ˜300 g were anesthetized and MCAo was achieved by introducing a 3-0 monofilament suture into the MCA via the internal carotid artery. Body temperature was maintained at 37.0±0.5° C., and blood pressure and blood gases were monitored during the experiments. Animals were sacrificed 24 h following MCAo onset. Cerebral infarction was analyzed using brain sections stained with hematoxylin and eosin (H & E) or 2,3,5-triphenyltetrazolium chloride (TTC). 10 min before the animals were sacrificed, two tests, the postural reflex test to examine upper body posture (Bederson et al., 1986) and the forelimb placing test to examine sensorimotor integration in forelimb placing responses to visual, tactile, and proprioceptive stimuli (De Ryck et al., 1989), were performed to grade neurological function on a scale of 0 to 12 (0=normal, 12=worst). In the pretreatment study, a single bolus of drugs (NR2A-specific antagonist NVP-AAM077 (2.4 mg/kg) or NR2B specific antagonist Ro 25-6981 (6 mg/kg) or vehicle (saline)) was infused intravenously 30 min before a 1-h MCAo. For post-treatment experiments, animals were subjected to a 1.5-h MCAo and drug treatments (glycine, 800 mg/kg; NVP-AAM077 and Ro 25-6981 at the same doses as in the pretreatment study) were then given via intraperitoneal injection (i.p.) 3 h after reperfusion (4.5 h after the onset of MCAo).
# The activating effect on NR2A-containing receptors was mimicked with the application of the NMDA receptor co-agonist glycine in the presence of an […] NR2B antagonist. Glycine by itself potentiates the function of NMDA receptors that are activated by endogenously released glutamate from presynaptic terminals both in vitro and in vivo (Johnson et al., 1987; Lu et al., 2001; De et al., 2000).
# cortical neurons [4] = experiment: Staurosporine (STS)-induced neuronal apoptosis; assay type: cell-based, rat; settings: NMDA 200 μM, 5 min, Ro 25-6981 0.5 μM present
# Excerpt: In alternative aspects of the invention, we have achieved specific activation of NR2A-containing receptors using two different strategies. First, we examined the effect of selective activation of extrasynaptic NR2A-containing receptor activation on neuronal appopotosis induced by staurosporine (STS), a potent apoptosis inducer (Budd et al., 2000). […] The NMDA-induced neuronal protection was indeed mediated by NR2A-containing receptors as it was prevented by co-application of NVP-AAM077 (p<0.001 compared with STS alone).
# Dissociated cultures of cortical neurons were prepared from 18-day Sprague-Dawley rat embryos as described previously (Mielke et al., 2005). To obtain mixed cortical cultures enriched with neurons, uridine (10 μM) and 5-Fluor-2′-deoxyuridine (10 μM) were added to the culture medium at 3 DIV and maintained for 48 h, to inhibit non-neuronal cell proliferation, before the cultures were shifted back to the normal culture medium. Mature neurons (11-14 DIV) were used for experiments. To induce neuronal apoptosis, cortical cultures were stimulated with NMDA (50 μM) and glycine (10 μM) for 20 min, or STS (100 nM) for 1 h in Mg2+-free extracellular solution (ECS) containing (mM): 25 HEPES acid, 140 NaCl, 33 glucose, 5.4 KCl and 1.3 CaCl2, with pH 7.35 and osmolarity 320-330 mOsm. […]
# To visualize injured neurons, Hoechst-33342 (10 μg/ml) was added to the culture medium 20 h after treatments and incubated for 45 min at 37 °C. Images were taken with a Leica DMIRE2 fluorescence microscope. Quantitative assessment of neuronal apoptosis was performed 20 h following treatments using a Cell Death Detection ELISAPLUS Kit (Roche Applied Science). Absorbance readings were determined using a spectrophotometric microplate reader. […] Data are expressed as the difference in apoptosis relative to control and are expressed as a percentage.
# [5] = test system: NR1C and NR2B receptors over NR1C+NR2A receptors; settings: cited from earlier work
# permanent focal ischemia = settings: in vivo; cited from earlier work
# cortical neurons [6] = experiment: Glycine pretreatment before NMDA-induced neuronal apoptosis; assay type: cell-based, rat
# Experimental: as §1, §2
# [7] = test system: acute ischaemic stroke in the carotid artery territory; settings: sublingual 1.0-2.0 g/day started within 6 h after onset; cited from earlier work
smiles,measurement,setting,value
N[C@@H](CCCP(=O)(O)O)C(=O)O [APV],effect on slow NMDA receptor-mediated component of mEPSCs,"synaptic NMDA receptors; -60 mV, zero added Mg2+, APV 50 μM, Ro 25-6981 0.5 μM",fully blocked
same,effect on NMDA-induced neuronal apoptosis/damage,cortical neurons [1],fully blocked
"O=C1N=c2cc([N+](=O)[O-])c([N+](=O)[O-])cc2=NC1=O [DNQX, 6,7-dinitroquinoxaline-2,3-dione]",effect on fast AMPA receptor-mediated component of mEPSCs,[2],completely blocked
C[C@]12N[C@H](Cc3ccccc31)c1ccccc12 [MK-801],blockade of synaptic NMDA receptors (APV-sensitive component of mEPSCs),"synaptic NMDA receptors; MK-801 10 μM co-applied with bicuculline 50 μM, within 10 min",complete blockade
same,effect of co-administration on the glycine effect (infarct volume reduction),[3]; co-administered with glycine 800 mg/kg 4.5 h after stroke onset,virtually completely abolished
same,neuroprotection / total infarct volume compared with MCAo alone,"[3]; given 3 h after 1.5-h MCAo (4.5 h after stroke onset), MK801 1 mg/Kg, glycine 800 mg/Kg, Ro 25-6981 6 mg/Kg",did not provide any noticeable neuroprotection
"CN[C@H](CC(=O)O)C(=O)O [NMDA, N-methyl-D-aspartate]",effect on STS-induced apoptosis,"cortical neurons [4]; STS 100 nM, 1 h",significantly reduced STS-induced apoptosis
same,neuronal apoptosis on its own,cortical neurons [4]; synaptic receptors blocked (MK-801 + bicuculline),did not increase neuronal apoptosis on its own
"Cc1ccc(CC2(O)CCN(CCOc3ccc(O)cc3)CC2)cc1 [Ro 63-1908, 1-[2-(4-hydroxy-phenoxy)-ethyl]-4-(4-methyl-benzyl)-piperidin-4-ol]",selectivity for the NR1C and NR2B receptors over NR1C+NR2A receptors,[5],"20,000 fold"
same,neuroprotective effect against cortical damage,permanent focal ischemia,dose-related neuroprotective effect
"NCC(=O)O [glycine, Glycine]",effect of pretreatment on NMDA-induced neuronal apoptosis,cortical neurons [6],significantly reduced NMDA-induced neuronal apoptosis
same,clinical effects,[7],favourable clinical effects
same,neuroprotection / total infarct volume compared with MCAo alone,"[3]; rat, in vivo",remarkable reduction in total infarct volume
